How the values were obtained:
[1] = tested on: Plasma; assay: Metabolic stability of the compound in human plasma at 10 mM after 2 mins by reversed-phase HPLC/UV analysis; format: ADME, cell-free; conditions: 10000 µM
[2] = Solubility of the compound in aqueous solution at 10 mg/ml by UV spectroscopy; format: physicochemical
[3] = Chemical stability of the compound in aqueous solution at 10 mg/ml by HPLC up to 2 hrs; format: physicochemical; conditions: buffer
[4] = tested on: Plasma; assay: Half life in human plasma at 10 mM by reversed-phase HPLC/UV analysis; format: ADME, cell-free; conditions: 10000 µM
[5] = Chemical stability of the compound in aqueous solution at 10 mg/ml by HPLC after 1 month; format: physicochemical; conditions: buffer, 730.5 h
[6] = target: Matrix metalloproteinase-9 (Homo sapiens, UniProt P14780)
Chain of Matrix metalloproteinase-9 (P14780 whole entry): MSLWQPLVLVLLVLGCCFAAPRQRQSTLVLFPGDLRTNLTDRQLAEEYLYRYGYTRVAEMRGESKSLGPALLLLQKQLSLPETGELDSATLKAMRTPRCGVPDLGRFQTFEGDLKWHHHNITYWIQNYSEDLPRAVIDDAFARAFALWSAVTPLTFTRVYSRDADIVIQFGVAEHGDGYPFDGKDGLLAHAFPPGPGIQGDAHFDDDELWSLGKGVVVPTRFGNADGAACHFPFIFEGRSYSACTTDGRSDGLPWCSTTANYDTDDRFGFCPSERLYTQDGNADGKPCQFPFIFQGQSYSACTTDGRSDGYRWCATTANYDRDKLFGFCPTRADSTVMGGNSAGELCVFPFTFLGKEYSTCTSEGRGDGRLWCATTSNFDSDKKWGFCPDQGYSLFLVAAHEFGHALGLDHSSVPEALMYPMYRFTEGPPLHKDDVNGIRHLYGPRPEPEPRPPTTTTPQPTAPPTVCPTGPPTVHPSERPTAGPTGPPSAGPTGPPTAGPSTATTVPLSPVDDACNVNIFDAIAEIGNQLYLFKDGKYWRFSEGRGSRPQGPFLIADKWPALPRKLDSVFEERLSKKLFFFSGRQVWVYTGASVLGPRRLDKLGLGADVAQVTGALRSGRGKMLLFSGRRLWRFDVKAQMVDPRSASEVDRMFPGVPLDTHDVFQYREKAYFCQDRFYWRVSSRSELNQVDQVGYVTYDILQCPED
Description: Inhibition of human recombinant MMP9 catalytic domain assessed as hydrolysis of MOCAcPLGLA2pr(Dnp)AR-NH2 by fluorescence spectrofluorometry

[7] = tested on: Blood; assay: Prodrug conversion in human blood assessed as release of 4-[4-((Thiiran-2-yl)methylsulphonyl)phenoxy]benzamine at 10 mM after 30 mins by reversed-phase HPLC/UV analysis; format: ADME, tissue-based; conditions: 0.5 h, 10000 µM
[8] = tested on: Blood; assay: Half life in human blood at 10 mM by reversed-phase HPLC/UV analysis; format: ADME, tissue-based; conditions: 10000 µM
[9] = target: T1, Interstitial collagenase (Homo sapiens) (UniProt P03956); assay: Inhibition of human recombinant MMP1 catalytic domain assessed as hydrolysis of MOCAcPLGLA2pr(Dnp)AR-NH2 at 300 uM by fluorescence spectrofluorometry
T1 sequence (whole entry): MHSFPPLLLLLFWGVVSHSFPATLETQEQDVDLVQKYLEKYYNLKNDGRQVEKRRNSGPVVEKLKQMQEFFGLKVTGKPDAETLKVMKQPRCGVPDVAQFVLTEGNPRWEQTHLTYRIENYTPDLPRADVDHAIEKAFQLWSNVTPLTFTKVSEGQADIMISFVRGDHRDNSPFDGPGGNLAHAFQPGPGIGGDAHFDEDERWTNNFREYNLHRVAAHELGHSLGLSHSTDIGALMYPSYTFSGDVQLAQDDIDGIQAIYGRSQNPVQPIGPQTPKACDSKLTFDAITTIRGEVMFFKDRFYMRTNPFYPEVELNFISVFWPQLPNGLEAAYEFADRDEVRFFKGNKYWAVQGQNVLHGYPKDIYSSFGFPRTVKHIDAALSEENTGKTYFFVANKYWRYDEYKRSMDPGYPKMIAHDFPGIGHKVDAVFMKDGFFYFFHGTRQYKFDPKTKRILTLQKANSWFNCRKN

[10] = target: Stromelysin-1 (Homo sapiens) (UniProt P08254); assay: Inhibition of human recombinant MMP3 catalytic domain assessed as hydrolysis of MOCAcPLGLA2pr(Dnp)AR-NH2 at 300 uM fluorescence by spectrofluorometry
Chain of Stromelysin-1 (Homo sapiens) (P08254 100-477 limits assumed): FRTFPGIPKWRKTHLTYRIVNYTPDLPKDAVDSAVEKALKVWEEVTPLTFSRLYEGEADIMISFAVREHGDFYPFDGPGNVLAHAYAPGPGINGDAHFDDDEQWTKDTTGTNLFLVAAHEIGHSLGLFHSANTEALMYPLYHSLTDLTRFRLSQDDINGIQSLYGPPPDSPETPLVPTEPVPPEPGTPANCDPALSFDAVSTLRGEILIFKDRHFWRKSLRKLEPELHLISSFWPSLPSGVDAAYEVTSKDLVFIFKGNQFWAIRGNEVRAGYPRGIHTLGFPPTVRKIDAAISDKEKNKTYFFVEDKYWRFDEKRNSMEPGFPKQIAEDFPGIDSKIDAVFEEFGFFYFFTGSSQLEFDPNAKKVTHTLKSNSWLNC

SMILES | Stability [1] | solubility [2] | Stability [3] | t1/2 [4] | Stability [5] | Ki [6] | Drug metabolism [7] | t1/2 [8] | inhibition [9] | inhibition [10]
NCCCC[C@H](N)C(=O)Oc1ccc(Oc2ccc(S(=O)(=O)CC3CS3)cc2)cc1 (some centres not stated) | Unstable | > 10000 µg/mL | Unstable | – | – | – | – | – | – | –
N[C@@H](CCC(=O)O)C(=O)Nc1ccc(Oc2ccc(S(=O)(=O)CC3CS3)cc2)cc1 (some centres not stated) | – | > 10000 µg/mL | – | 32.8 min | Stable | 4.3 µM | Active | 27.9 min | – | –
NCCCC[C@H](N)C(=O)Nc1ccc(Oc2ccc(S(=O)(=O)CC3CS3)cc2)cc1 (some centres not stated) | – | > 10000 µg/mL | – | 25.1 min | Stable | – | Active | 15.3 min | – | –
NCC(=O)Oc1ccc(Oc2ccc(S(=O)(=O)CC3CS3)cc2)cc1 (configuration not stated) | Unstable | > 10000 µg/mL | Unstable | – | – | – | – | – | – | –
Nc1ccc(Oc2ccc(S(=O)(=O)CC3CS3)cc2)cc1O (configuration not stated) | – | – | – | – | – | – | – | – | 11% | 54%
N=C(N)NCCC[C@H](NC(=O)[C@@H](N)CCCNC(=N)N)C(=O)Oc1ccc(Oc2ccc(S(=O)(=O)CC3CS3)cc2)cc1 (some centres not stated) | Unstable | > 10000 µg/mL | Unstable | – | – | – | – | – | – | –
